The source of these data is patent US8486975B2, “Non-nucleoside reverse transcriptase inhibitors” (Merck Canada Inc., priority 2010, dated 2013).

One experiment has as its system wild-type HIV-1. As to the kind of experiment: Spread assay: inhibition of acute HIV-1 infection of T-lymphoid cells (wild-type). It is filed as cell-based. The protocol:
Assays for the inhibition of acute HIV-1 infection of T-lymphoid cells (alternatively referred to herein as the “spread assay”) were conducted in accordance with Vacca, J. P. et al., Proc. Natl. Acad. Sci. USA 1994, 91: 4096. […] The compounds were also tested using a variant of the assay using HIV strains containing the K103N and Y181C mutants, and found to be less than 20-fold shifted relative to wild-type in all cases.

A further experiment has as its target HIV-1 RT enzyme (WT) (Human immunodeficiency virus type 1 group M subtype B, UniProt P04585). As to the kind of experiment: ECL assay for inhibition of HIV reverse transcriptase. The following applies: 100 nM compound; wild-type RT. It is filed as biochemical. On the procedure:
An assay to determine the in vitro inhibition of HIV reverse transcriptase by compounds of the present invention was conducted as follows: HIV-1 RT enzyme (0.1 nM) was combined with inhibitor or DMSO (10%) in assay buffer (50 mM Tris-HCl, pH 7.8, 1 mM dithiothreitol, 6 mM MgCl2, 80 mM KCl, 0.025% CHAPS, 0.1 mM EGTA), and the mixture preincubated for 30 minutes at room temperature in microtiter plates (Corning Costar #3365). 50 μL reaction mixtures were initiated with a combination of primer-template substrate (5 nM final concentration) and dNTPs (0.6 μM dNTPs, 20 nM Ruthenium-dUTP). The heterodimeric nucleic acid substrate was generated by annealing the DNA primer biotinylated-pD500 (obtained from Integrated DNA Technologies) to t500, a 500 nucleotide RNA template created by in vitro transcription (see Shaw-Reid et al., J. Biol. Chem., 278: 2777-2780). After a 90 minute incubation at 37° C., reactions were quenched by 60 μL of quenching buffer containing 0.05 M EDTA, 0.7% BSA, 0.07% Tween-20 and 0.017% sodium azide in PBS. […] The plate is then left at room temperature for 1 hour, after which it is washed 3 times with 200 μL per well of PBS. 150 μL of 1× read buffer T (MSD) is added and the plate read on the Sector Imager 6000 (MSD).

With `Cn1c(Cn2ccc(Br)c(Oc3cc(Cl)cc(C#N)c3)c2=O)n[nH]c1=O` [Example 4-1, 3-({4-Bromo-1-[(4-methyl-5-oxo-4,5-dihydro-1H-1,2,4-triazol-3-yl)methyl]-2-oxo-1,2-dihydropyridin-3-yl}oxy)-5-chlorobenzonitrile], the “Spread (WT) CIC95 (nM) (50% NHS)” value with wild-type HIV-1 turned out to be 12 nM. Further, the inhibition at 0.1 µM on HIV-1 RT enzyme (WT) amounted to 90%.
Taken in the same sequence, the figures for `Cn1c(Cn2ccc(C(F)(F)F)c(Oc3cc(Cl)cc(C#N)c3)c2=O)n[nH]c1=O` [Example 1-1, 3-Chloro-5-({1-[(4-methyl-5-oxo-4,5-dihydro-1H-1,2,4-triazol-3-yl)methyl]-2-oxo-4-(trifluoromethyl)-1,2-dihydropyridin-3-yl}oxy)benzonitrile] were 19 nM and 85%.
For `Cn1c(Cn2ccc(Cl)c(Oc3cc(Cl)cc(C#N)c3)c2=O)n[nH]c1=O` [Example 3-1, 3-Chloro-5-({4-chloro-1-[(4-methyl-5-oxo-4,5-dihydro-1H-1,2,4-triazol-3-yl)methyl]-2-oxo-1,2-dihydropyridin-3-yl}oxy)benzonitrile] the same measures were 15 nM and 75%.
For `Cn1c(Cn2cc(Br)c(Cl)c(Oc3cc(Cl)cc(C#N)c3)c2=O)n[nH]c1=O` [Example 6-1, 3-({5-Bromo-4-chloro-1-[(4-methyl-5-oxo-4,5-dihydro-lH-l,2,4-triazol-3-yl)methyl]-2-oxo-1,2-dihydropyridin-3-yl}oxy)-5-chlorobenzonitrile], the “Spread (WT) CIC95 (nM) (10% FBS)” value with wild-type HIV-1 was 5.1 nM. For the same compound, at HIV-1 RT enzyme (WT), the inhibition at 0.1 µM was determined as 90%.
Turning to `CCn1c(Cn2ccc(C(F)(F)F)c(Oc3cc(Cl)cc(C#N)c3)c2=O)n[nH]c1=O` [Example 2-1, 3-Chloro-5-({1-[(4-ethyl-5-oxo-4,5-dihydro-1H-1,2,4-triazol-3-yl)methyl]-2-oxo-4-(trifluoromethyl)-1,2-dihydropyridin-3-yl}oxy)benzonitrile], the “Spread (WT) CIC95 (nM) (50% NHS)” value in the experiment with wild-type HIV-1 is listed as 26 nM. Moreover, the inhibition at 0.1 µM on HIV-1 RT enzyme (WT) is 75%.
Taken in the same sequence, the figures for `Cn1c(Cn2ccc(C(C)(F)F)c(Oc3cc(Cl)cc(C#N)c3)c2=O)n[nH]c1=O` [Example 5-1, 3-Chloro-5-({4-(1,1-difluoroethyl)-1-[(4-methyl-5-oxo-4,5-dihydro-1H-1,2,4-triazol-3-yl)methyl]-2-oxo-1,2-dihydropyridin-3-yl}oxy)benzonitrile] were 10 nM and 75%.
`Cn1c(Cn2cc(Br)c(C(F)(F)F)c(Oc3cc(Cl)cc(C#N)c3)c2=O)n[nH]c1=O` [Example 7-1, 3-({5-Bromo-1-[(4-methyl-5-oxo-4,5-dihydro-1H-1,2,4-triazol-3-yl)methyl]-2-oxo-4-(trifluoromethyl)-1,2-dihydropyridin-3-yl}oxy)-5-chlorobenzonitrile]: in the experiment on wild-type HIV-1, the “Spread (WT) CIC95 (nM) (50% NHS)” value is given as 23 nM. Further, the inhibition at 0.1 µM at HIV-1 RT enzyme (WT) was determined as 77%.
For `Cn1c(Cn2ccc(C(F)(F)F)c(Oc3cc(C#N)cc(C(F)F)c3)c2=O)n[nH]c1=O` [Example 8-1, 3-(Difluoromethyl)-5-({1-[(4-methyl-5-oxo-4,5-dihydro-1H-1,2,4-triazol-3-yl)methyl]-2-oxo-4-(trifluoromethyl)-1,2-dihydropyridin-3-yl}oxy)benzonitrile], the “Spread (WT) CIC95 (nM) (10% FBS)” value in the experiment with wild-type HIV-1 came out at 7.3 nM. Moreover, the inhibition at 0.1 µM at HIV-1 RT enzyme (WT) was 75%.
